These results are taken from ChEMBL document CHEMBL1156468, “Crystal structures of Saccharomyces cerevisiae N-myristoyltransferase with bound myristoyl-CoA and inhibitors reveal the functional roles of the N-terminal region” (J Biol Chem, 2007).

The target of data set [1] is T1, Glycylpeptide N-tetradecanoyltransferase (Saccharomyces cerevisiae S288c, UniProt P14743).
T1 sequence (P14743 whole entry): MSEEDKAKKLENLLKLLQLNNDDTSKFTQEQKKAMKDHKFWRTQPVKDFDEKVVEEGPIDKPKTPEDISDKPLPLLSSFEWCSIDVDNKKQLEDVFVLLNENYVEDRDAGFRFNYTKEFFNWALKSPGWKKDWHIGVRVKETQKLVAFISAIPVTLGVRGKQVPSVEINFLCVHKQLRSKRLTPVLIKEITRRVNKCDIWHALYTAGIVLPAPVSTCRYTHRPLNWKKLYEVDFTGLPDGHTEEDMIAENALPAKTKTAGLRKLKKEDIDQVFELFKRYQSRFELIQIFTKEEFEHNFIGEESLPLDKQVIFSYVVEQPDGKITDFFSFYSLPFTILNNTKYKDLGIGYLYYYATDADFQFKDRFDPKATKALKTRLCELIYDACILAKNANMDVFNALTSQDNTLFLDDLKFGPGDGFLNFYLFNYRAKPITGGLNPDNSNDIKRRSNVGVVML
In words: Inhibition of Saccharomyces cerevisiae NMT.

The test system of data set [2] is Saccharomyces cerevisiae. Kind of data set: Ratio of kcat to Km for Saccharomyces cerevisiae NMT delta1-20 mutant.
Data set [3] has as its system Saccharomyces cerevisiae. Kind of data set: Activity of Saccharomyces cerevisiae NMT NMT delta1-30 mutant assessed as production of coenzyme A after 1 hr.
For data set [4], the system named is Saccharomyces cerevisiae. Kind of data set: Activity of Saccharomyces cerevisiae NMT NMT delta1-20 mutant assessed as production of coenzyme A after 1 hr.
Data set [5] has as its system Saccharomyces cerevisiae. Kind of data set: Activity of Saccharomyces cerevisiae NMT NMT delta1-40 mutant assessed as production of coenzyme A after 1 hr.
Data set [6] relates to Saccharomyces cerevisiae. In words: Ratio of kcat to Km for Saccharomyces cerevisiae NMT D22K/D23K mutant.
Data set [7] has as its system Saccharomyces cerevisiae. In words: Ratio of kcat to Km for Saccharomyces cerevisiae NMT delta1-30 mutant.
Data set [8] has as its system Saccharomyces cerevisiae. In words: Activity of Saccharomyces cerevisiae NMT D22K/D23K mutant assessed as production of coenzyme A after 1 hr.
Data set [9] relates to Saccharomyces cerevisiae. In words: Ratio of kcat to Km for Saccharomyces cerevisiae NMT delta1-40 mutant.
Substrate in data set [10]: CC(C)C[C@H](NC(=O)CN)C(=O)N[C@@H](Cc1ccccc1)C(=O)N[C@@H](C)C(=O)N[C@@H](CO)C(=O)N[C@@H](CCCCN)C(=O)N[C@@H](CC(C)C)C(=O)N[C@@H](Cc1ccccc1)C(=O)O
Kind of data set: Activity of Saccharomyces cerevisiae wild type NMT assessed as production of coenzyme A after 1 hr.

Substrate in data set [11]: CC(C)C[C@H](NC(=O)CN)C(=O)N[C@@H](Cc1ccccc1)C(=O)N[C@@H](C)C(=O)N[C@@H](CO)C(=O)N[C@@H](CCCCN)C(=O)N[C@@H](CC(C)C)C(=O)N[C@@H](Cc1ccccc1)C(=O)O
Kind of data set: Ratio of kcat to Km for Saccharomyces cerevisiae wild type NMT.

Substrate in data set [12]: CC(C)C[C@H](NC(=O)CN)C(=O)N[C@@H](Cc1ccccc1)C(=O)N[C@@H](C)C(=O)N[C@@H](CO)C(=O)N[C@@H](CCCCN)C(=O)N[C@@H](CC(C)C)C(=O)N[C@@H](Cc1ccccc1)C(=O)O
Kind of data set: Activity of Saccharomyces cerevisiae NMT D106A/D108A mutant assessed as production of coenzyme A after 1 hr.

Substrate in data set [13]: CC(C)C[C@H](NC(=O)CN)C(=O)N[C@@H](Cc1ccccc1)C(=O)N[C@@H](C)C(=O)N[C@@H](CO)C(=O)N[C@@H](CCCCN)C(=O)N[C@@H](CC(C)C)C(=O)N[C@@H](Cc1ccccc1)C(=O)O
Kind of data set: Ratio of kcat to Km for Saccharomyces cerevisiae NMT D106A/D108A mutant.

Substrate in data set [14]: CC(C)C[C@H](NC(=O)CN)C(=O)N[C@@H](Cc1ccccc1)C(=O)N[C@@H](C)C(=O)N[C@@H](CO)C(=O)N[C@@H](CCCCN)C(=O)N[C@@H](CC(C)C)C(=O)N[C@@H](Cc1ccccc1)C(=O)O
In words: Activity of Saccharomyces cerevisiae NMT D22A/D23A mutant assessed as production of coenzyme A after 1 hr.

Substrate in data set [15]: CC(C)C[C@H](NC(=O)CN)C(=O)N[C@@H](Cc1ccccc1)C(=O)N[C@@H](C)C(=O)N[C@@H](CO)C(=O)N[C@@H](CCCCN)C(=O)N[C@@H](CC(C)C)C(=O)N[C@@H](Cc1ccccc1)C(=O)O
Kind of data set: Ratio of kcat to Km for Saccharomyces cerevisiae NMT D22A/D23A mutant.

Substrate in data set [16]: CC(C)C[C@H](NC(=O)CN)C(=O)N[C@@H](Cc1ccccc1)C(=O)N[C@@H](C)C(=O)N[C@@H](CO)C(=O)N[C@@H](CCCCN)C(=O)N[C@@H](CC(C)C)C(=O)N[C@@H](Cc1ccccc1)C(=O)O
Kind of data set: Ratio of kcat to Km for Saccharomyces cerevisiae NMT D106K mutant.

Substrate in data set [17]: CC(C)C[C@H](NC(=O)CN)C(=O)N[C@@H](Cc1ccccc1)C(=O)N[C@@H](C)C(=O)N[C@@H](CO)C(=O)N[C@@H](CCCCN)C(=O)N[C@@H](CC(C)C)C(=O)N[C@@H](Cc1ccccc1)C(=O)O
In words: Activity of Saccharomyces cerevisiae NMT D106K mutant assessed as production of coenzyme A after 1 hr.

Substitutions are numbered along the chain they refer to. In names and notes the source's numbering stands.

In data set [1], `Cc1nccn1CCCCc1ccc(CC(=O)N[C@@H](CO)C(=O)N[C@@H](CCCCN)C(=O)NCCC2CCCCC2)cc1` [SC-58272] registered an IC50 of 24 nM.

Consider `CCCCCCCCCCCCCC(=O)CSCCNC(=O)CCNC(=O)C(O)C(C)(C)COP(=O)(O)OP(=O)(O)OC[C@H]1O[C@@H](n2cnc3c(N)ncnc32)[C@H](O)[C@@H]1OP(=O)(O)O` (stereo partly specified), for which, in data set [1], the midpoint of inhibition, the IC50, lay at 50 nM.

In the case of H-GLFASKLF-OH, the kcat/Km was 1.29 ×10⁵ /M/s with Saccharomyces cerevisiae [2], 3.16 ×10⁴ /M/s in the data set with Saccharomyces cerevisiae [6], 2.43 ×10⁴ /M/s with Saccharomyces cerevisiae [7] and 2.48 ×10⁴ /M/s with Saccharomyces cerevisiae [9]. The Michaelis constant (Km) in the data set with Saccharomyces cerevisiae [3] turned out to be 159 µM; in the data set with Saccharomyces cerevisiae [4], 27.7 µM; in the data set on Saccharomyces cerevisiae [5], 162 µM; with Saccharomyces cerevisiae [8], 150 µM. The kcat in the data set with Saccharomyces cerevisiae [3] is 3.85 s⁻¹; in the data set on Saccharomyces cerevisiae [4], 3.58 s⁻¹; with Saccharomyces cerevisiae [5], 4.03 s⁻¹; in the data set on Saccharomyces cerevisiae [8], 4.73 s⁻¹.

B1: Glycylpeptide N-tetradecanoyltransferase (Saccharomyces cerevisiae S288c), P14743 (protein)
chain: T1 sequence (P14743 whole entry)
Regarding B1, in data set [10], the Km was 13.7 µM and the turnover number (kcat) stood at 3.06 s⁻¹. Further, in data set [11], the kcat/Km worked out at 2.24 ×10⁵ /M/s.

B2: Glycylpeptide N-tetradecanoyltransferase (Saccharomyces cerevisiae S288c), P14743 D106A,D108A (protein)
chain: T1 sequence (P14743 whole entry) with D106A, D108A
For B2, in [12], the Km worked out at 38.5 µM and the kcat worked out at 2.55 s⁻¹. In addition, the kcat/Km in [13] was found to be 6.62 ×10⁴ /M/s.

B3: Glycylpeptide N-tetradecanoyltransferase (Saccharomyces cerevisiae S288c), P14743 D22A,D23A (protein)
chain: T1 sequence (P14743 whole entry) with D22A, D23A
As to B3, in [14], the Km turned out to be 92.4 µM and the turnover number (kcat) was 3.83 s⁻¹. Besides, the kcat/Km in data set [15] stood at 4.15 ×10⁴ /M/s.

B4: Glycylpeptide N-tetradecanoyltransferase (Saccharomyces cerevisiae S288c), P14743 D106K (protein)
chain: T1 sequence (P14743 whole entry) with D106K
Regarding B4, the kcat/Km in [16] amounted to 8.65 ×10⁴ /M/s. In data set [17], the Michaelis-Menten constant (Km) was 30.6 µM and the turnover number (kcat) amounted to 2.65 s⁻¹.

In general, IC50 refers to the point on the concentration scale where inhibition reaches its midpoint. Read a low IC50 as higher potency. As usually defined, the Km is the concentration of substrate that gives half-maximal velocity. One may read the kcat as the number of substrate molecules converted per active site and unit of time at saturation.
